From ChEMBL document CHEMBL3769335, “Non-symmetrical furan-amidines as novel leads for the treatment of cancer and malaria” (Eur J Med Chem, 2016)
Active and inactive are the calls of the source. The calls are words filed in the database; no cut-off is given here.

Columns and labels:
[1] = target: T1, Ribosyldihydronicotinamide dehydrogenase [quinone] (Homo sapiens, UniProt P16083); test: Inhibition of human recombinant NQO2 using DCPIPas substrate and NRH as cofactor measured for 1 min by spectrophotometry in the prsence of BSA
T1 sequence (P16083 whole entry): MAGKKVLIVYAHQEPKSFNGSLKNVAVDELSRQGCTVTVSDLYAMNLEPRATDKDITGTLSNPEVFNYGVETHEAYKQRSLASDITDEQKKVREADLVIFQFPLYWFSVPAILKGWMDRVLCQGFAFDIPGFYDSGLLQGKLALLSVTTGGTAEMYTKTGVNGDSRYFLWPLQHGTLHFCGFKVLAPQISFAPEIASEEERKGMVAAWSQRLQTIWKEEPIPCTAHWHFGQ

T47D [2] = test: Cytotoxicity against human T47D cells after 96 hrs by MTT assay; assay type: functional, cell-based
MCF7 [3] = test: Cytotoxicity against human MCF7 cells after 96 hrs by MTT assay; assay type: functional, cell-based; settings: MCF7, 96 h
MDA-MB-231 [4] = test: Cytotoxicity against human MDA-MB-231 cells after 96 hrs by MTT assay; assay type: functional, cell-based; settings: MDA-MB-231, 96 h
Calf thymus DNA = settings: Bos taurus
Description: Binding affinity to calf thymus DNA assessed as change in melting temperature by UV-visible spectrophometry

[5] = target: T1, Ribosyldihydronicotinamide dehydrogenase [quinone]; test: Inhibition of human recombinant NQO2 using DCPIPas substrate and NRH as cofactor measured for 1 min by spectrophotometry in the absence of BSA
MDA-MB-468 [6] = test: Cytotoxicity against human MDA-MB-468 cells after 96 hrs by MTT assay; assay type: functional, cell-based; settings: MDA-MB-468, 96 h
[7] = target: T1, Ribosyldihydronicotinamide dehydrogenase [quinone]; test: Inhibition of human recombinant NQO2 using DCPIP as substrate and NRH as cofactor in absence of BSA
Plasmodium falciparum = test: Antimalarial activity against Plasmodium falciparum 3D7 infected in erythrocyte assessed as growth inhibition after 4 days by flow cytometry; assay type: functional, organism-based; settings: 3D7, 96 h
[8] = Drug uptake in Plasmodium falciparum 3D7 nucleus; assay type: ADME
MDA-MB-468 [9] = test: Cytotoxicity against human MDA-MB-468 cells at 10 uM after 96 hrs by MTT assay; assay type: functional, cell-based
T47D [10] = test: Cytotoxicity against human T47D cells at 10 uM after 96 hrs by MTT assay; assay type: functional, cell-based
[11] = target: NAD(P)H dehydrogenase [quinone] 1 (Homo sapiens) (UniProt P15559); test: Inhibition of human recombinant NQO1 using NADH as substrate at 10 uM measured for 1 min by spectrophotometry in absence of BSA
Sequence of NAD(P)H dehydrogenase [quinone] 1 (Homo sapiens) (P15559 whole entry): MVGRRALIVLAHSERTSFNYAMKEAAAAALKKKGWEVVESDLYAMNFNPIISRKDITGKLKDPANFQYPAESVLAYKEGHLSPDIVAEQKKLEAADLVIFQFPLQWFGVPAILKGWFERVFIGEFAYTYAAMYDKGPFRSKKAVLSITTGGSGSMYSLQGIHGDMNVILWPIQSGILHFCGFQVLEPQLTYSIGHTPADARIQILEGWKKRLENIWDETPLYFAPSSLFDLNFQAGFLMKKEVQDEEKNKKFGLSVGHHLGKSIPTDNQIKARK

MCF7 [12] = test: Cytotoxicity against human MCF7 cells at 10 uM after 96 hrs by MTT assay; assay type: functional, cell-based
[13] = target: NAD(P)H dehydrogenase [quinone] 1 (Homo sapiens) (UniProt P15559); test: Inhibition of human recombinant NQO1 using NADH as substrate at 10 uM measured for 1 min by spectrophotometry in presence of BSA
MDA-MB-231 [14] = test: Cytotoxicity against human MDA-MB-231 cells at 10 uM after 96 hrs by MTT assay; assay type: functional, cell-based

Structure (SMILES)	IC50 [1] [µM]	IC50 (T47D [2]) [µM]	IC50 (MCF7 [3]) [µM]	IC50 (MDA-MB-231 [4]) [µM]	ΔTm (Calf thymus DNA) [°C]	IC50 [5] [µM]	IC50 (MDA-MB-468 [6]) [µM]	IC50 [7] [µM]	IC50 (Plasmodium falciparum) [µM]	Drug uptake [8]	Activity (MDA-MB-468 [9])	Activity (T47D [10])	inhibition [11]	Activity (MCF7 [12])	inhibition [13]	Activity (MDA-MB-231 [14])
N=C(N)c1ccc(-c2ccc(-c3ccc(Br)cc3)o2)cc1	0.185	2.4	2.6	2.7	4.4	0.027	2.5									
N=C(N)c1ccc(-c2ccc(-c3cccc(F)c3)o2)cc1	0.111	2.8	2.6	2	3.2	0.098	2.4									
Cn1c(-c2ccccc2)ccc1-c1ccc(C(=N)N)cc1	0.943	2.1	2.7	2.6	0.9	0.41	3.8									
COc1cccc2c1C(=O)c1c(O)c3c(c(O)c1C2=O)C[C@@](O)(C(=O)CO)C[C@@H]3O[C@H]1C[C@H](N)[C@H](O)[C@H](C)O1					20.5											
CCc1ccc(-c2ccc(-c3ccc(C(=N)N)cc3)o2)cc1	0.312	3	3.2	3.4		0.202	3.3									
N=C(N)c1ccc(-c2ccc(-c3ccccc3)o2)cc1	0.139	2.8	2.4	2	1.9	0.068	2.7	0.14								
Oc1ccc(/C=C/c2cc(O)cc(O)c2)cc1 [RESVERATROL]		59	62	57			58									
N=C(N)c1ccc(-c2ccc(-c3cccc([N+](=O)[O-])c3)o2)cc1	0.028	3.3	3	2.9		0.0145	3.3									
CC(C)(C)c1ccc(-c2ccc(-c3ccc(C(=N)N)cc3)o2)cc1	0.712	3.6	3.7	3.2		0.51	3.8									
CC(=O)O.COc1ccc(-c2ccc(-c3ccc(C(=N)N)cc3)o2)cc1	0.141	3	2.8	2.5	2	0.107	2.2		0.139	Not Active						
N=C(N)c1cccc(-c2ccc(-c3ccccc3)o2)c1											inactive	inactive	inactive	inactive	inactive	inactive
CC(=O)O.Cc1ccc(-c2ccc(-c3ccc(C(=N)N)cc3)o2)cc1	0.11	3.1	4.8	3.4	2.8	0.072	3.7		0.0575	Not Active						
N=C(N)c1ccc(-c2ccc(-c3ccccc3)[nH]2)cc1	0.832	3.4	3.2	3.8		0.332	3.6									
Cc1c(-c2ccc(C(=N)N)cc2)oc(-c2ccc(C(=N)N)cc2)c1C								0.05								
CC(=O)O.N=C(N)c1ccc(-c2ccc(-c3ccc(F)cc3)o2)cc1	0.836	3.6	3.7	3.2	3.2	0.505	3.8		0.0096	Not Active						
N=C(N)c1ccc(-c2ccc(-c3ccc([N+](=O)[O-])cc3)o2)cc1	0.024	3.8	3.2	3.1		0.0152	3.4									
CC(=O)O.CC(=O)O.N=C(N)c1ccc(-c2ccc(-c3ccc(C(=N)N)cc3)o2)cc1	0.072	12.8	13.6	12.5	20	0.035	14	0.63		Active						
